Assay results as given in patent US20050075375A1 (priority 2003, published 2005).

Test system: monocistronic NK5.1 HCV replicon in Huh7 cells
Test: HCV replicon assay, monocistronic replicon cell line
Type: cell-based, hepatitis C virus
Details: Hepatitis C virus, Huh-7, 72 h; table T3 (compounds 471-640); monocistronic replicon in Huh7 cells, 3 days incubation, HCV RNA/GAPDH RNA by TaqMan RT-PCR; read-out: Mono EC50 Median
Method in brief: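 Huh7 cells carrying the monocistronic NK5.1 replicon, seeded 24 h before dosing, were exposed to six-point half-log compound series (0.6% DMSO) for 3 days at 37 °C. Replicon RNA was quantified by TaqMan RT-PCR, normalised to GAPDH and compared with DMSO controls to derive EC50.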

COc1ccc(O)c(-c2nc(-c3ncccc3C(F)(F)F)nn2C)c1 [Compound 632, 4-Methoxy-2-[2-methyl-5-(3-trifluoromethyl-pyridin-2-yl)-2H-[1,2,4]triazol-3-yl]-phenol] gave an EC50 of 31 µM.
For Cn1nc(-c2ncccc2C(F)(F)F)nc1-c1cc(Br)ccc1O [Compound 633, 4-Bromo-2-[2-methyl-5-(3-trifluoromethyl-pyridin-2-yl)-2H-[1,2,4]triazol-3-yl]phenol], the EC50 was 3.6 µM.
In the case of Oc1ccc(Br)cc1-c1ncn(-c2ncccc2C(F)(F)F)n1 [Compound 634, 4-Bromo-2-[1-(3-trifluoromethyl-pyridin-2-yl)-1H-[1,2,4]triazol-3-yl]-phenol], the EC50 is reported as 3.8 µM.
Work on Cc1cccnc1-n1cnc(-c2cc(Br)ccc2O)n1 [Compound 635, 4-Bromo-2-[1-(3-methyl-pyridin-2-yl)-1H-[1,2,4]triazol-3-yl]-phenol] yielded an EC50 of 6.2 µM.
Work on COc1ccc(O)c(-c2ncn(-c3ccccn3)n2)c1 [Compound 636, 4-Methoxy-2-(1-pyridin-2-yl-1H-[1,2,4]triazol-3-yl)-phenol] yielded an EC50 of 15 µM.
COc1ccc(O)c(-c2ncn(-c3ncccc3C)n2)c1 [Compound 637, 4-Methoxy-2-[1-(3-methyl-pyridin-2-yl)-1H-[1,2,4]triazol-3-yl]-phenol] was tested, and the EC50 was 12 µM.
Work on COc1ccc(O)c(-c2ncn(-c3ncccc3C(F)(F)F)n2)c1 [Compound 638, 4-Methoxy-2-[1-(3-trifluoromethyl-pyridin-2-yl)-1H-[1,2,4]triazol-3-yl]-phenol] yielded an EC50 of 11 µM.
In the case of c1ccc(-c2ncn(-c3ccccn3)n2)nc1 [Compound 639], the EC50 is reported as greater than 32 µM.
With Cn1nc(-c2ncccc2C(F)(F)F)nc1-c1cc([N+](=O)[O-])ccc1O [Compound 640, 4-Nitro-2-[2-methyl-5-(3-trifluoromethyl-pyridin-2-yl)-2H-[1,2,4]triazol-3-yl]-phenol] the EC50 was greater than 32 µM.
